The target in the experiment is T1, human TGR5 (h-TGR5) (Homo sapiens, UniProt Q8TDU6).
T1 construct: expressed in transfected cells
T1 sequence (Q8TDU6 1-330): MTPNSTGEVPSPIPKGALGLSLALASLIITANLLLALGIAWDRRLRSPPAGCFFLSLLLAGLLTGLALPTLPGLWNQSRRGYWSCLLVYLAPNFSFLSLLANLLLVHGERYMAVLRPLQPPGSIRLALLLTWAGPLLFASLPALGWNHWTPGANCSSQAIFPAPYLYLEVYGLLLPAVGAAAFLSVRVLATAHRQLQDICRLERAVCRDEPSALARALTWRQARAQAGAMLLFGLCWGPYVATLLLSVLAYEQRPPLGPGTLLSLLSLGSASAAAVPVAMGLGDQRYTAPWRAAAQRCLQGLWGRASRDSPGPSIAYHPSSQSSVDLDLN
Description: TGR5/CRE-Luciferiase Assay (HEK 293 hTGR5/CRE-Luc cells). The experiment is classed as cell-based. The method, boiled down: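 HEK293 cells stably carrying hTGR5 and a CRE-luciferase reporter were exposed to serially diluted compounds (diluted in DMEM with 5% DMSO) for 6 h. Cells were then lysed in luciferase buffer, luminescence was read, and EC50 values were derived from dose-response curves.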

The mark [1] stands for this setting: h-TGR5 CRE-Luc EC50, Table 1, read-out: CRE-Luc (EC50).
Where [2] appears, read: HEK 293 hTGR5/CRE-Luc cells, 6 hours incubation, luciferase activity, Table 2, read-out: h-TGR5CRE-Luc EC50 (CRE-Luc).

Where two headings read alike, the source gives them in different places.

`CC(C)(c1ccc(Cl)c(Cl)c1)c1cnc(SCc2ccc(F)cc2Cl)n1-c1ccc(F)c(C#N)c1` [5-(2-{[(2-chloro-4-fluorophenyl)methyl]thio}-5-[1-(3,4-dichlorophenyl)-1-methylethyl]-1H-imidazol-1-yl)-2-fluorobenzonitrile]: the EC50 under setting [1] fell in the range of 0.1 to 1 µM.

`CC(C)(c1ccc(F)cc1)c1cnc(SCc2c(F)cccc2Cl)n1-c1ccc(F)cc1` [2-{[(2-chloro-6-fluorophenyl)methyl]thio}-1-(4-fluorophenyl)-5-[1-(4-fluorophenyl)-1-methylethyl]-1H-imidazole]: the EC50 under setting [1] is 0.1 to 1 µM.

Turning to `COc1c(Cl)cc(C(C)(C)c2cnc(SCc3ccc(F)c(S(N)(=O)=O)c3)n2-c2ccc(F)cc2)cc1Cl` [5-({[5-{1-[3,5-dichloro-4-(methyloxy)phenyl]-1-methylethyl}-1-(4-fluorophenyl)-1H-imidazol-2-yl]thio}methyl)-2-fluorobenzenesulfonamide], the EC50 under setting [1] is under 0.1 µM.

Consider `CC(C)(c1ccc(Cl)c(Cl)c1)c1cnc(S(=O)(=O)Cc2c(F)cccc2Cl)n1-c1ccc(Cl)c(Cl)c1` [2-{[(2-chloro-6-fluorophenyl)methyl]sulfonyl}-1-(3,4-dichlorophenyl)-5-[1-(3,4-dichlorophenyl)-1-methylethyl]-1H-imidazole], for which the EC50 under setting [1] fell in the range of 1 to 10 µM.

As for `CC(C)(c1ccc(Cl)c(Cl)c1)c1cnc(SCc2ccc(F)cc2Cl)n1-c1cc(F)cc(F)c1` [2-{[(2-chloro-4-fluorophenyl)methyl]thio}-5-[1-(3,4-dichlorophenyl)-1-methylethyl]-1-(3,5-difluorophenyl)-1H-imidazole], the EC50 under setting [1] lay in the range of 0.1 to 1 µM.

Consider `CC(C)(c1ccc(Cl)c(S(N)(=O)=O)c1)c1cnc(SCc2c(F)cc(C(=O)O)cc2F)n1-c1ccc(F)cc1` [4-({[5-{1-[3-(aminosulfonyl)-4-chlorophenyl]-1-methylethyl}-1-(4-fluorophenyl)-1H-imidazol-2-yl]thio}methyl)-3,5-difluorobenzoic acid], for which the concentration for a half-maximal effect (EC50) under setting [1] fell in the range of 1 to 10 µM.

`CC(C)(c1ccc(Cl)c(Cl)c1)c1cnc(COc2ccc(Cl)cn2)n1-c1ccc(F)cc1` [5-chloro-2-[({5-[1-(3,4-dichlorophenyl)-1-methylethyl]-1-(4-fluorophenyl)-1H-imidazol-2-yl}methyl)oxy]pyridine]: the EC50 under setting [1] fell in the range of 0.1 to 1 µM.

As to `CC(C)(c1ccc(Cl)c(Cl)c1)c1cnc(C(F)CC2CCN(S(C)(=O)=O)CC2)n1-c1ccc(F)cc1` (stereo not drawn) [4-(2-{5-[1-(3,4-dichlorophenyl)-1-methylethyl]-1-(4-fluorophenyl)-1H-imidazol-2-yl}-2-fluoroethyl)-1-(methylsulfonyl)piperidine], the EC50 under setting [1] was 1 to 10 µM.

Consider `CC(C)(c1ccc(F)c(F)c1)c1cnc(SCc2c(F)cc(C(=O)O)cc2Cl)n1-c1ccc(F)cc1` [3-chloro-4-[({5-[1-(3,4-difluorophenyl)-1-methylethyl]-1-(4-fluorophenyl)-1H-imidazol-2-yl}thio)methyl]-5-fluorobenzoic acid], for which the EC50 under setting [1] was 0.1 to 1 µM.

Turning to `CC(C)(c1ccc(Cl)c(Cl)c1)c1cnc(SCC2CCN(S(C)(=O)=O)CC2)n1-c1ccc(F)c(F)c1` [4-[({5-[1-(3,4-dichlorophenyl)-1-methylethyl]-1-(3,4-difluorophenyl)-1H-imidazol-2-yl}thio)methyl]-1-(methylsulfonyl)piperidine], the EC50 under setting [1] was under 0.1 µM.

For `CC(C)(c1ccc(Cl)c(Cl)c1)c1cnc(S(=O)(=O)Cc2ccc(F)cc2Cl)n1-c1ccc(F)cc1` [2-{[(2-chloro-4-fluorophenyl)methyl]sulfonyl}-5-[1-(3,4-dichlorophenyl)-1-methylethyl]-1-(4-fluorophenyl)-1H-imidazole], the EC50 under setting [1] was in the range of 1 to 10 µM.

With `COc1ccc(C(C)(C)c2cnc(CNCc3c(F)cccc3Cl)n2-c2ccc(F)cc2)cc1OC` [1-[5-{1-[3,4-bis(methyloxy)phenyl]-1-methylethyl}-1-(4-fluorophenyl)-1H-imidazol-2-yl]-N-[(2-chloro-6-fluorophenyl)methyl]methanamine], under setting [1], the EC50 is under 0.1 µM.

As for `CC(C)(Oc1ccc(C(C)(C)c2cnc(SCc3ccc(F)cc3Cl)n2-c2ccc(F)cc2)cc1Cl)C(=O)O` [2-[(2-chloro-4-{1-[2-{[(2-chloro-4-fluorophenyl)methyl]thio}-1-(4-fluorophenyl)-1H-imidazol-5-yl]-1-methylethyl}phenyl)oxy]-2-methylpropanoic acid], the EC50 under setting [1] fell in the range of 0.1 to 1 µM.

Turning to `CC(C)(C(=O)O)c1ccc(F)c(CSc2ncc(C(C)(C)c3ccc(Cl)c(Cl)c3)n2-c2ccc(F)cc2)c1` [2-{3-[({5-[1-(3,4-dichlorophenyl)-1-methylethyl]-1-(4-fluorophenyl)-1H-imidazol-2-yl}thio)methyl]-4-fluorophenyl}-2-methylpropanoic acid], the EC50 under setting [1] was in the range of 1 to 10 µM.

On to `COc1ccc(Cc2nnc(SCc3cccc(C(F)(F)F)c3F)n2-c2ccc(F)cc2)cc1OC` [Example 30], for which the EC50 under setting [2] is under 0.1 µM.

In the case of `COc1ccc(C(C)(C)c2cnc(S(=O)(=O)Cc3c(F)cccc3Cl)n2-c2ccc(F)cc2)cc1OC` [5-{1-[3,4-bis(methyloxy)phenyl]-1-methylethyl}-2-{[(2-chloro-6-fluorophenyl)methyl]sulfonyl}-1-(4-fluorophenyl)-1H-imidazole], the EC50 under setting [1] was under 0.1 µM.

For `Fc1ccc(CSc2nnc(Cc3ccc(Cl)c(Cl)c3)n2-c2ccc(F)cc2)cc1` [Example 17], the EC50 under setting [2] was 1 to 10 µM.

Take `CC(C)(c1ccc(Cl)c(Cl)c1)c1cnc(COc2ccc(C#N)cn2)n1-c1ccc(F)cc1` [6-[({5-[1-(3,4-dichlorophenyl)-1-methylethyl]-1-(4-fluorophenyl)-1H-imidazol-2-yl}methyl)oxy]pyridine-3-carbonitrile]: the EC50 under setting [1] lay within 0.1 to 1 µM.

In the case of `CC(C)(c1ccc(Cl)c(Cl)c1)c1cnc(S(=O)(=O)N[C@H](CO)c2ccccc2)n1-c1ccc(F)cc1` [5-[1-(3,4-dichlorophenyl)-1-methylethyl]-1-(4-fluorophenyl)-N-[(1S)-2-hydroxy-1-phenylethyl]-1H-imidazole-2-sulfonamide], the EC50 under setting [1] lay in the range of 1 to 10 µM.

As for `CC(C)(c1ccc(Cl)c(Cl)c1)c1cnc(SCc2c(F)cccc2Cl)n1-c1ccc(F)cc1Cl` [1-(2-chloro-4-fluorophenyl)-2-{[(2-chloro-6-fluorophenyl)methyl]thio}-5-[1-(3,4-dichlorophenyl)-1-methylethyl]-1H-imidazole], the EC50 under setting [1] was in the range of 0.1 to 1 µM.

As to `CC(C)(c1ccc(Cl)c(Cl)c1)c1cnc(S(=O)(=O)Cc2ccc(F)c(Cl)c2)n1-c1ccc(F)cc1` [2-{[(3-chloro-4-fluorophenyl)methyl]sulfonyl}-5-[1-(3,4-dichlorophenyl)-1-methylethyl]-1-(4-fluorophenyl)-1H-imidazole], under setting [1], the EC50 is 0.1 to 1 µM.

For the molecule `CC(C)(c1ccc(Cl)c(Cl)c1)c1cnc(SCc2ccc(F)cc2CO)n1-c1ccc(F)cc1` [{2-[({5-[1-(3,4-dichlorophenyl)-1-methylethyl]-1-(4-fluorophenyl)-1H-imidazol-2-yl}thio)methyl]-5-fluorophenyl}methanol], the EC50 under setting [1] lay in the range of 1 to 10 µM.

Turning to `COc1ccc(C(C)(C)c2cnc(CNCc3ccc(Cl)c(F)c3)n2-c2ccc(F)cc2)cc1OC` [1-[5-{1-[3,4-bis(methyloxy)phenyl]-1-methylethyl}-1-(4-fluorophenyl)-1H-imidazol-2-yl]-N-[(4-chloro-3-fluorophenyl)methyl]methanamine], the EC50 under setting [1] is under 0.1 µM.

Regarding `CC(C)(c1ccc(Cl)c(Cl)c1)c1cnc(S(=O)(=O)Cc2ccc(Cl)cc2Cl)n1-c1ccc(F)cc1` [5-[1-(3,4-dichlorophenyl)-1-methylethyl]-2-{[(2,4-dichlorophenyl)methyl]sulfonyl}-1-(4-fluorophenyl)-1H-imidazole], under setting [1], the EC50 was 1 to 10 µM.

Regarding `CC(C)(c1ccc(Cl)c(Cl)c1)c1cnc(SCC2CCCN(S(C)(=O)=O)C2)n1-c1ccc(F)cc1` (stereo not drawn) [3-[({5-[1-(3,4-dichlorophenyl)-1-methylethyl]-1-(4-fluorophenyl)-1H-imidazol-2-yl}thio)methyl]-1-(methylsulfonyl)piperidine], the EC50 under setting [1] fell in the range of 0.1 to 1 µM.

In the case of `CC(C)(c1ccc(Cl)cc1)c1nnc(SCc2ccc(F)cc2Cl)n1-c1ccc(F)cc1` [Example 6], the EC50 under setting [2] fell in the range of 1 to 10 µM.

Regarding `CC(C)(c1ccc(Cl)c(Cl)c1)c1cnc(SCc2ccc(F)cc2Cl)n1-c1ccc(F)c(C(F)(F)F)c1` [2-{[(2-chloro-4-fluorophenyl)methyl]thio}-5-[1-(3,4-dichlorophenyl)-1-methylethyl]-1-[4-fluoro-3-(trifluoromethyl)phenyl]-1H-imidazole], the EC50 under setting [1] lay within 1 to 10 µM.

As for `COc1ccc(C(C)(C)c2cnc(SCc3ccc(C(=O)O)cc3F)n2-c2ccc(F)cc2)cc1Cl` [4-({[5-{1-[3-chloro-4-(methyloxy)phenyl]-1-methylethyl}-1-(4-fluorophenyl)-1H-imidazol-2-yl]thio}methyl)-3-fluorobenzoic acid], the half-maximal effective concentration (EC50) under setting [1] is 0.1 to 1 µM.

As to `COc1ccc(C(C)(C)c2cnc(SCc3ccc(Cl)c(Cl)c3)n2-c2ccc(F)cc2)cc1OC` [5-{1-[3,4-bis(methyloxy)phenyl]-1-methylethyl}-2-{[(3,4-dichlorophenyl)methyl]thio}-1-(4-fluorophenyl)-1H-imidazole], the EC50 under setting [1] was under 0.1 µM.

`CC(C)(c1ccc(Cl)c(Cl)c1)c1cnc(OCC2CCN(c3nnn[nH]3)CC2)n1-c1ccc(F)cc1` [4-[({5-[1-(3,4-dichlorophenyl)-1-methylethyl]-1-(4-fluorophenyl)-1H-imidazol-2-yl}oxy)methyl]-1-(1H-tetrazol-5-yl)piperidine]: the EC50 under setting [1] was 1 to 10 µM.

These data come from US8785488B2 (Exelixis Patent Company LLC, priority 2009, dated 2014).
